Results: US20250313574A1, “SIALIC ACID DERIVATIVES AND METHODS OF USING SAME” (EISAI R&D MANAGEMENT CO., LTD., priority 2022, published 2025)

What was measured:
[1] = biological target: Recombinant Human Siglec-3/CD33 protein (His-CD33) (Homo sapiens (Human), UniProt P20138); assay: Differential scanning fluorimetry (DSF) thermal shift assay; format: binding; conditions: thermal melt shift of 0.5 μM CD33 protein with 50 μM compound
Description: In the DSF assay, as the temperature increases, the protein gets gradually unfolded, exposing hydrophobic regions in which a fluorescent dye binds causing the fluorescence signal to increase. The midpoint of the unfolding transitions is called the thermal melt (Tm) or denaturation temperature and the Tm was defined as the peak apex in the derivative curve. Here, the Tm temperature of CD33 in the presence and absence of A-001 at a concentration of 50 μM was examined.
Recombinant Human Siglec-3/CD33 protein was purchased from Acros (catalog no. CD3-H5226) and reagents used in this study are shown in the Table 1 below.
Lyophilized CD33 protein was received in 1 mg aliquots from Acros. The protein was diluted with 2.5 mL of sterile water to a concentration of 400 μg/mL (14.5 μM), aliquoted into 138 μL aliquots and stored as at −20° C. On the day of analysis, the protein was thawed and […] solution was diluted to […] using buffer containing 133 mM NaCl, 133 mM phosphate buffered solution and 13.9× Sypro Orange dye in water in a quantity to cover the amount of samples tested on the day of the analysis.
200 μM stock solutions of A-001 containing 0.2% DMSO in water was supplied by compound management in a 384-well plate format.
Sample matrix were prepared by adding 7.5 μL of the protein buffer stock solution followed by addition of 2.5 μL of the 200 μM compound solutions in 384-well PCR plates to give a final volume of 10 μL per well consisting of 0.5 μM CD33 protein, 100 mM phosphate buffered solution pH 7.4, 100 mM NaCl, 10× SYPRO orange dye and 50 μM compound concentration (final DMSO concentration ˜0.2%). Using the Applied Biosystems® Protein Thermal Shift software (algorithm version 1.3.), the denaturation temperature or thermal melt (Tm) of the unbound and ligand bound CD33 protein was automatically assigned and the difference in thermal melt (ΔTm D) was calculated using the derivative curve by the Protein Thermal Shift software.
Recombinant human CD33 protein (0.5 μM) was incubated under buffered conditions in the presence of SYPRO orange dye, a temperature gradient was applied and a thermogram was produced by monitoring the fluorescence. The Tm was defined as the peak apex in the derivative curve in the study. […] Addition of […] of A-001 (Blue lines) to the CD33 protein induced significant Tm increases (ΔTm D) of 12.2±0.7° C.

[2] = biological target: Recombinant human CD33 protein (Homo sapiens (Human), UniProt P20138); assay: CD33 competitive binding assay for HTS drug screen (fluorescent multivalent sialic acid probe)
Sequence of Recombinant human CD33 protein (P20138 18-259): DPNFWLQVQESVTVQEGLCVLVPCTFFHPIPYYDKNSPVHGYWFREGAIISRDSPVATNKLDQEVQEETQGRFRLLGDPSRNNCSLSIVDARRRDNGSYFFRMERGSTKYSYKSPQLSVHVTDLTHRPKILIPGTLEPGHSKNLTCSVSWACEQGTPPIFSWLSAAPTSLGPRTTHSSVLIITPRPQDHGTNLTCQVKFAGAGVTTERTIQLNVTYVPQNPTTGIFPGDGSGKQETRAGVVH
Outline: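 Recombinant human CD33, coated overnight at 4° C from 10 μg/ml in pH 5.5 acetate, was preincubated briefly with compound. It was then exposed to a multivalent neutravidin/FITC/sialic acid analog A-375 probe (final 5 μM neutravidin, 15 μM A-375, 5 μM FITC) for 30 min at room temperature. After washing, bound FITC fluorescence was read.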

Sequence of Recombinant Human Siglec-3/CD33 protein (His-CD33) (P20138 18-259): as above

| DSF (dTmD) [1] | EC50 [2] | Compound |
| --- | --- | --- |
| 6.6 | 1020 nM | CC(=O)N[C@H]1[C@H]([C@H](O)[C@H](O)CNC(=O)c2cc(C)c(O)c(C)c2)O[C@@](CCN2CCOC[C@@]23CCN(C(=O)C2(C)CCC2)C3)(C(=O)O)C[C@@H]1O [A-103] |
| 16.6 | 6 nM | CC(=O)N[C@H]1[C@H]([C@H](O)[C@H](O)CNC(=O)c2cc(C)c3[nH]ccc3c2)O[C@@](CCN2CCOC[C@@]23CCN(C(=O)OC(C)(C)C)C3)(C(=O)O)C[C@@H]1O [A-109] |
| 12.2 | 30 nM | CC(=O)N[C@H]1[C@H]([C@H](O)[C@H](O)CNC(=O)c2ccc3ncsc3c2)O[C@@](CCN2CCOC[C@@]23CCN(C(=O)OC(C)(C)C)C3)(C(=O)O)C[C@@H]1O [A-110] |
| 12.5 | 16 nM | CC(=O)N[C@H]1[C@H]([C@H](O)[C@H](O)CNC(=O)c2cc(C)c3[nH]ncc3c2)O[C@@](CCN2CCOC[C@@]23CCN(C(=O)OC(C)(C)C)C3)(C(=O)O)C[C@@H]1O [A-111] |
| 12.5 | 22 nM | CC(=O)N[C@H]1[C@H]([C@H](O)[C@H](O)CNC(=O)c2ccc3[nH]cc(C)c3c2)O[C@@](CCN2CCOC[C@@]23CCN(C(=O)OC(C)(C)C)C3)(C(=O)O)C[C@@H]1O [A-112] |
| 11.1 | 34 nM | CC(=O)N[C@H]1[C@H]([C@H](O)[C@H](O)CNC(=O)c2c[nH]c(C)c2)O[C@@](CCN2CCOC[C@@]23CCN(C(=O)OC(C)(C)C)C3)(C(=O)O)C[C@@H]1O [A-113] |
| 12.4 | 22 nM | CC(=O)N[C@H]1[C@H]([C@H](O)[C@H](O)CNC(=O)c2ccc3ncccc3n2)O[C@@](CCN2CCOC[C@@]23CCN(C(=O)OC(C)(C)C)C3)(C(=O)O)C[C@@H]1O [A-114] |
| 15.1 | 7 nM | CC(=O)N[C@H]1[C@H]([C@H](O)[C@H](O)CNC(=O)c2cc(Br)c(O)c(Br)c2)O[C@@](CCN2CCOC[C@@]23CCN(C(=O)OC(C)(C)C)C3)(C(=O)O)C[C@@H]1O [A-115] |
| 12.4 | 42 nM | CC(=O)N[C@H]1[C@H]([C@H](O)[C@H](O)CNC(=O)c2cccc(Br)c2)O[C@@](CCN2CCOC[C@@]23CCN(C(=O)OC(C)(C)C)C3)(C(=O)O)C[C@@H]1O [A-116] |
| 12.4 | 28 nM | CC(=O)N[C@H]1[C@H]([C@H](O)[C@H](O)CNC(=O)c2ccc(O)c(C)c2)O[C@@](CCN2CCOC[C@@]23CCN(C(=O)OC(C)(C)C)C3)(C(=O)O)C[C@@H]1O [A-117] |
| 12.1 | 60 nM | COc1c(C)cc(C(=O)NC[C@@H](O)[C@@H](O)[C@@H]2O[C@@](CCN3CCOC[C@@]34CCN(C(=O)OC(C)(C)C)C4)(C(=O)O)C[C@H](O)[C@H]2NC(C)=O)cc1C [A-118] |
| 14.0 | 17 nM | CC(=O)N[C@H]1[C@H]([C@H](O)[C@H](O)CNC(=O)c2cc(C)c(N)c(C)c2)O[C@@](CCN2CCOC[C@@]23CCN(C(=O)OC(C)(C)C)C3)(C(=O)O)C[C@@H]1O [A-119] |
| 12.2 | 40 nM | COc1ccc(C(=O)NC[C@@H](O)[C@@H](O)[C@@H]2O[C@@](CCN3CCOC[C@@]34CCN(C(=O)OC(C)(C)C)C4)(C(=O)O)C[C@H](O)[C@H]2NC(C)=O)cc1OC [A-120] |
| 13.6 | 29 nM | CC(=O)N[C@H]1[C@H]([C@H](O)[C@H](O)CNC(=O)c2ccc3occc3c2)O[C@@](CCN2CCOC[C@@]23CCN(C(=O)OC(C)(C)C)C3)(C(=O)O)C[C@@H]1O [A-121] |
| 12.4 | 32 nM | CC(=O)N[C@H]1[C@H]([C@H](O)[C@H](O)CNC(=O)c2cc3ncccn3n2)O[C@@](CCN2CCOC[C@@]23CCN(C(=O)OC(C)(C)C)C3)(C(=O)O)C[C@@H]1O [A-122] |
| 11.0 | 68 nM | COc1cc(C(=O)NC[C@@H](O)[C@@H](O)[C@@H]2O[C@@](CCN3CCOC[C@@]34CCN(C(=O)OC(C)(C)C)C4)(C(=O)O)C[C@H](O)[C@H]2NC(C)=O)cc(OC)c1O [A-123] |

| DSF (dTmD) [1] | EC50 [2] | Compound |
| --- | --- | --- |
| 13.4 | 28 nM | CC(=O)N[C@H]1[C@H]([C@H](O)[C@H](O)CNC(=O)c2ccc3c(cnn3C)c2)O[C@@](CCN2CCOC[C@@]23CCN(C(=O)OC(C)(C)C)C3)(C(=O)O)C[C@@H]1O [A-124] |
| 13.3 | 23 nM | CC(=O)N[C@H]1[C@H]([C@H](O)[C@H](O)CNC(=O)c2ccc3[nH]nc(C)c3c2)O[C@@](CCN2CCOC[C@@]23CCN(C(=O)OC(C)(C)C)C3)(C(=O)O)C[C@@H]1O [A-125] |
| 11.2 | 50 nM | CC(=O)N[C@H]1[C@H]([C@H](O)[C@H](O)CNC(=O)c2cnc3[nH]ncc3c2)O[C@@](CCN2CCOC[C@@]23CCN(C(=O)OC(C)(C)C)C3)(C(=O)O)C[C@@H]1O [A-126] |
| 11.7 | 59 nM | CC(=O)N[C@H]1[C@H]([C@H](O)[C@H](O)CNC(=O)c2cnc3[nH]nc(C)c3c2)O[C@@](CCN2CCOC[C@@]23CCN(C(=O)OC(C)(C)C)C3)(C(=O)O)C[C@@H]1O [A-127] |
| 11.5 | 50 nM | CC(=O)N[C@H]1[C@H]([C@H](O)[C@H](O)CNC(=O)c2ccc3[nH]nc(F)c3c2)O[C@@](CCN2CCOC[C@@]23CCN(C(=O)OC(C)(C)C)C3)(C(=O)O)C[C@@H]1O [A-128] |
| 15.0 | 10 nM | CC(=O)N[C@H]1[C@H]([C@H](O)[C@H](O)CNC(=O)c2ccc3[nH]ccc3c2)O[C@@](CCN2CCOC[C@@]23CCN(C(=O)OC(C)(C)C)C3)(C(=O)O)C[C@@H]1O [A-129] |
| 12.4 | 51 nM | CC(=O)N[C@H]1[C@H]([C@H](O)[C@H](O)CNC(=O)c2ccc(F)c(Br)c2)O[C@@](CCN2CCOC[C@@]23CCN(C(=O)OC(C)(C)C)C3)(C(=O)O)C[C@@H]1O [A-132] |
| 11.4 | 46 nM | CC(=O)N[C@H]1[C@H]([C@H](O)[C@H](O)CNC(=O)c2cc(Br)[nH]n2)O[C@@](CCN2CCOC[C@@]23CCN(C(=O)OC(C)(C)C)C3)(C(=O)O)C[C@@H]1O [A-133] |
| 15.8 | 14 nM | CC(=O)N[C@H]1[C@H]([C@H](O)[C@H](O)CNC(=O)c2cc(C)c3[nH]c(CO)cc3c2)O[C@@](CCN2CCOC[C@@]23CCN(C(=O)OC(C)(C)C)C3)(C(=O)O)C[C@@H]1O [A-134] |
| 9.6 | 101 nM | CC(=O)N[C@H]1[C@H]([C@H](O)[C@H](O)CNC(=O)c2ccc3[nH]cnc3c2)O[C@@](CCN2CCOC[C@@]23CCN(C(=O)OC(C)(C)C)C3)(C(=O)O)C[C@@H]1O [A-135] |
| 6.5 | 440 nM | CC(=O)N[C@H]1[C@H]([C@H](O)[C@H](O)CNC(=O)c2cn(C)nc2C)O[C@@](CCN2CCOC[C@@]23CCN(C(=O)OC(C)(C)C)C3)(C(=O)O)C[C@@H]1O [A-136] |
| 12.7 | 76 nM | CC(=O)N[C@H]1[C@H]([C@H](O)[C@H](O)CNC(=O)c2ccc3occc3c2)O[C@@](CCN2CCOC[C@@]23CCN(C(=O)OC(C)(C)C)C3)(C(=O)O)C[C@@H]1O [A-137] |
| 6.6 | 600 nM | CC(=O)N[C@H]1[C@H]([C@H](O)[C@H](O)CNC(=O)c2ccc3c(=O)n(C)cnc3c2)O[C@@](CCN2CCOC[C@@]23CCN(C(=O)OC(C)(C)C)C3)(C(=O)O)C[C@@H]1O [A-138] |
| 6.2 | 610 nM | CC(=O)N[C@H]1[C@H]([C@H](O)[C@H](O)CNC(=O)c2c[nH]c(C)n2)O[C@@](CCN2CCOC[C@@]23CCN(C(=O)OC(C)(C)C)C3)(C(=O)O)C[C@@H]1O [A-139] |
| 7.5 | 350 nM | CC(=O)N[C@H]1[C@H]([C@H](O)[C@H](O)CNC(=O)c2nc(C)oc2C)O[C@@](CCN2CCOC[C@@]23CCN(C(=O)OC(C)(C)C)C3)(C(=O)O)C[C@@H]1O [A-140] |
| 7.0 | 350 nM | CC(=O)N[C@H]1[C@H]([C@H](O)[C@H](O)CNC(=O)c2cc(C)c(C(N)=O)c(C)c2)O[C@@](CCN2CCOC[C@@]23CCN(C(=O)OC(C)(C)C)C3)(C(=O)O)C[C@@H]1O [A-141] |
